According to publication PMC6958422 (Pharmaceuticals, 2019):

Legend:
hA2B AR = target: T1, hA2B AR (Homo sapiens, UniProt P29275); test: cAMP assay, stimulation of cAMP production in hA2B CHO cells (agonism); assay type: cell-based; conditions: for Emax at 1 µM: CHO, compound at 1µM, in comparison with NECA (1µM = 100%), read-out: Efficacy hA2B (cAMP assays) (converted); for EC50: hA2B CHO cells, means ± SEM of four assays
T1 construct: expressed in transfected cells; host or cells: CHO cells
T1 sequence (P29275 1-332): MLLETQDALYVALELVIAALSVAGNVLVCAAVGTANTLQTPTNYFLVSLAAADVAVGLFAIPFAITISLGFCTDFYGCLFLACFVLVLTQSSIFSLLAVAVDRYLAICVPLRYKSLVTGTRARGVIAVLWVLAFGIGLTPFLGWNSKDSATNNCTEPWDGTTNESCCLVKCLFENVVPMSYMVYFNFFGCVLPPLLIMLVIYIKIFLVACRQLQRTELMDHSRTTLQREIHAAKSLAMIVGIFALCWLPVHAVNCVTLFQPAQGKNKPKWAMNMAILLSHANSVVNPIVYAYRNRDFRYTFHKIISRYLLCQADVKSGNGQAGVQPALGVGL
Description: The amino-3,5-dicyanopyridines 1–20 were tested for their affinity at hA1, hA2A, and hA3 ARs, stably transfected in Chinese Hamster Ovary (CHO) cells, and were also studied as hA2B agonists by evaluating their stimulatory effect on cAMP production in CHO cells, stably expressing the hA2B AR.
(§1) CHO cells transfected with hA1, hA2A, hA2B, and hA3 ARs were grown adherently and maintained in Dulbecco’s modified Eagle’s medium (Sigma-Aldrich, Milan, Italy) with nutrient mixture F12, containing 10% fetal calf serum, penicillin (100 U/mL), streptomycin (100 μg/mL), l-glutamine (2 mM) and geneticin (G418; 0.2 mg/mL) at 37°C in 5% CO2/95% air until the use in cAMP assays. For membrane preparation, the culture medium was removed, and the cells were washed with phosphate-buffered saline and scraped off T75 flasks in ice-cold hypotonic buffer (5 mM Tris HCl, 1 mM EDTA, pH 7.4). The cell suspension was homogenized with a Polytron, centrifuged for 30 min at 40000 g at 4°C, and the resulting membrane pellet was used for competition binding experiments.
CHO cells transfected with hAR subtypes were washed with phosphate-buffered saline, detached with trypsin and centrifuged for 10 min at 200 g. Cells were seeded in 96-well white half-area microplate (Perkin Elmer, Boston, USA) in a stimulation buffer composed of Hank Balanced Salt Solution (Sigma-Aldrich, Milan, Italy), 5 mM HEPES, 0.5 mM Ro 20-1724, and 0.1% BSA. cAMP levels were then quantified by using the AlphaScreen cAMP Detection Kit (Perkin Elmer) following the manufacturer’s instructions. At the end of the experiments, plates were read with the Perkin Elmer EnSight Multimode Plate Reader.

hA1 AR = target: T2, hA1 AR (Homo sapiens, UniProt P30542); test: [3H]DPCPX competition binding to hA1 CHO cell membranes; conditions: for I% hA1: percentage of inhibition at 1µM, [3H]DPCPX
T2 construct: expressed in transfected cells; host or cells: CHO cells
T2 sequence (P30542 1-326): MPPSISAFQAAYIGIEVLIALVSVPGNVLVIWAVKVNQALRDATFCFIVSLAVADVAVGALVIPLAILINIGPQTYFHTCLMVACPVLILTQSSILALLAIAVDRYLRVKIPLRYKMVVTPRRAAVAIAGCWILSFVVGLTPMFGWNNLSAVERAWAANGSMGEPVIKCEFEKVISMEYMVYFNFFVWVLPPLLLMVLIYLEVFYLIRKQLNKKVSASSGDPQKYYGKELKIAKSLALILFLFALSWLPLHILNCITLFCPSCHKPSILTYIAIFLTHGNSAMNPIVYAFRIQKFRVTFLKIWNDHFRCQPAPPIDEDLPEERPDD
Description: as §1
(§2) All synthesized compounds have been tested for their affinity to hA1, hA2A, and hA3 ARs. Competition experiments to hA1 ARs were carried out incubating 1 nM [^3H]-8-cyclopentyl-1,3-dipropylxanthine ([^3H]-DPCPX) with membrane suspension (50 μg of protein/100 μL) and different concentrations of the examined compounds at 25°C for 90 min in 50 mM Tris HCl, pH 7.4. […] Inhibition experiments to hA2A ARs were performed incubating the radioligand [^3H]-ZM241385 (4-(2-[7-Amino-2-(2-furyl)[1,2,4]triazolo[2,3-a][1,3,5]triazin-5-ylamino]ethyl)phenol) (1 nM) with the membrane suspension (50 μg of protein/100 μL) and different concentrations of the examined compounds for 60 min at 4°C in 50 mM Tris HCl (pH 7.4), 10 mM MgCl2. Non-specific binding was determined in the presence of ZM241385 (1 μM) and was about 20% of the total binding. Competition binding experiments to A3 ARs were carried out incubating the membrane suspension (50 μg of protein/100 μL) with 0.5 nM [^125I]-N^6-(4-aminobenzyl)-N-methylcarboxamidoadenosine ([^125I]-ABMECA) in the presence of different concentration of the examined compounds for an incubation time of 120 min at 4°C in 50 mM Tris HCl (pH 7.4), 10 mM MgCl2, and 1 mM EDTA. Non-specific binding was defined as binding in the presence of 1μM ABMECA and was always < 10% of the total binding. Bound and free radioactivity were separated by filtering the assay mixture through Whatman GF/B glass fiber filters using a Brandel cell harvester (Brandel Instruments, Unterföhring, Germany). The filter bound radioactivity was counted by Packard Tri Carb 2810 TR scintillation counter (Perkin Elmer, Boston, MA, USA).
(§3) The protein concentration was determined according to a Bio-Rad method with bovine albumin as a standard reference. Inhibitory binding constant (Ki) values were calculated from those of IC50 according to Cheng & Prusoff equation Ki = IC50/(1+[C*]/KD*), where [C*] is the concentration of the radioligand and KD* its dissociation constant. Ki and IC50 values were calculated by non-linear regression analysis using the equation for a sigmoid concentration-response curve (Graph-PAD Prism, San Diego, CA, USA).

hA2A AR = target: T3, hA2A AR (Homo sapiens, UniProt P29274); test: [3H]ZM241385 competition binding to hA2A CHO cell membranes; conditions: for I% hA2A: percentage of inhibition at 1µM, [3H]ZM241385; for Ki: [3H]ZM241385, hA2A CHO cells, means ± SEM
T3 construct: expressed in transfected cells; host or cells: CHO cells
Description: as §1, §2, §3

hA3 AR = target: T4, hA3 AR (Homo sapiens, UniProt P0DMS8); test: [125I]AB-MECA competition binding to hA3 CHO cell membranes; conditions: for Ki: hA3 CHO cells, means ± SEM; for inhibition at 1 µM: percentage of inhibition at 1µM
T4 construct: expressed in transfected cells; host or cells: CHO cells
T4 sequence (P0DMS8 1-318): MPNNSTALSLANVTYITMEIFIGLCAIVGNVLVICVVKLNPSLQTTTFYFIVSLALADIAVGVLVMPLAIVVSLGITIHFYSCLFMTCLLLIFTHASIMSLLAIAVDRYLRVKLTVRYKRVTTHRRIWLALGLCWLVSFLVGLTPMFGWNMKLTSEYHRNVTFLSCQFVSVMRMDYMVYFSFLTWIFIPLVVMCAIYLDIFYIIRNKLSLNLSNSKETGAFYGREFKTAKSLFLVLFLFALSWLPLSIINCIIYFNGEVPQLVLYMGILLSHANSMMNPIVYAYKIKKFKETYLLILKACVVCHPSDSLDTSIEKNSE
Description: as §1, §2, §3

T3 sequence (P29274 whole entry): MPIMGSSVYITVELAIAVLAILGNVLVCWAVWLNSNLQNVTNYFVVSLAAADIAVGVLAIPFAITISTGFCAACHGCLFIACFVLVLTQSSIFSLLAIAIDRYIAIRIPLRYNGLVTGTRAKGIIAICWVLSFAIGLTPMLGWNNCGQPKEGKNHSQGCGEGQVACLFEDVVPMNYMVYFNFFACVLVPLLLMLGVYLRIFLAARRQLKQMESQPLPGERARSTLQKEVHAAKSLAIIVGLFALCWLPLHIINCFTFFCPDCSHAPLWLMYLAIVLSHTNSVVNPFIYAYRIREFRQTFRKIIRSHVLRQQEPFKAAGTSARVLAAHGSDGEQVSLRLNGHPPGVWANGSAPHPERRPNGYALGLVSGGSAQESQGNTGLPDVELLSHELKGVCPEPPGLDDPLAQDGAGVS

Structure (SMILES)	Emax at 1 µM (hA2B AR) [%]	EC50 (hA2B AR) [µM]	I% hA1 (hA1 AR) [%]	I% hA2A (hA2A AR) [%]	Ki (hA3 AR) [µM]	melting point	inhibition at 1 µM (hA3 AR) [%]	Ki (hA1 AR) [µM]	Pharmacological profile at hA2BAR (hA2B AR; cAMP assay)	Ki (hA2A AR) [µM]
N#Cc1c(N)nc(SCc2ncc[nH]2)c(C#N)c1-c1ccc(OCC2CCC2)cc1 [Compound 1, 2-Amino-4-[4-(cyclobutylmethoxy)phenyl]-6-[(1H-imidazol-2-ylmethyl)sulfanyl]pyridine-3,5-dicarbonitrile]	12	> 1	25	4	0.574 ± 0.046	214 to 216 °C	–	–	–	–
CC(C)COc1ccc(-c2c(C#N)c(N)nc(SCc3ncc[nH]3)c2C#N)cc1 [Compound 2, 2-Amino-6-[(1H-imidazol-2-ylmethyl)sulfanyl]-4-[4-(2-methylpropoxy)phenyl]pyridine-3,5-dicarbonitrile]	36	0.227 ± 0.021	26	1	–	230 to 232 °C	1	–	–	–
C=C(C)COc1ccc(-c2c(C#N)c(N)nc(SCc3ncc[nH]3)c2C#N)cc1 [Compound 4, 2-Amino-6-[(1H-imidazol-2-ylmethyl)sulfanyl]-4-{4-[(2-methylprop-2-en-1-yl)oxy]phenyl} pyridine-3,5-dicarbonitrile]	14	> 1	–	1	–	224 to 226 °C	8	0.077 ± 0.006	–	–
CC(=O)Nc1ccc(-c2c(C#N)c(N)nc(SCc3ncc[nH]3)c2C#N)cc1 [Compound 6, N-(4-{2-Amino-3,5-dicyano-6-[(1H-imidazol-2-ylmethyl)sulfanyl]pyridin-4-yl}phenyl) acetamide]	100	0.012 ± 0.001	–	–	0.048 ± 0.004	275 to 278 °C	–	0.083 ± 0.007	full agonist profile	0.038 ± 0.003
N#Cc1c(N)nc(SCc2ncc[nH]2)c(C#N)c1-c1ccc(Cl)cc1 [Compound 7, 2-Amino-4-(4-chlorophenyl)-6-[(1H-imidazol-2-ylmethyl)sulfanyl]pyridine-3,5-dicarbonitrile]	32	0.109 ± 0.012	–	–	0.85 ± 0.062	229 to 231 °C (dec.)	–	0.03 ± 0.004	–	0.865 ± 0.068
N#Cc1c(N)nc(SCc2ncc[nH]2)c(C#N)c1-c1ccc(C(F)(F)F)cc1 [Compound 9, 2-Amino-6-[(1H-imidazol-2-ylmethyl)sulfanyl]-4-[4-(trifluoromethyl)phenyl]pyridine-3,5-dicarbonitrile]	4	> 1	–	32	–	233 to 235 °C (dec.)	21	0.419 ± 0.032	–	–
Cc1ccc(-c2c(C#N)c(N)nc(SCc3ncc[nH]3)c2C#N)cc1 [Compound 10, 2-[(1H-Imidazol-2-il)metiltio]-6-ammino-4(4-metilfenil)piridina-3,5-dicarbonitrile]	78	0.078 ± 0.006	–	–	0.212 ± 0.019	259 to 261 °C (dec.)	–	0.00532 ± 0.00042	–	0.047 ± 0.004
N#Cc1c(N)nc(SCc2ncc[nH]2)c(C#N)c1Cc1ccccc1 [Compound 12, 2-Amino-4-benzyl-6-[(1H-imidazol-2-ylmethyl)sulfanyl]pyridine-3,5-dicarbonitrile]	44	0.26 ± 0.024	31	8	–	246 to 248 °C (dec.)	1	–	–	–
Cc1c(C#N)c(N)nc(SCc2ncc[nH]2)c1C#N [Compound 13, 2-Amino-6-[(1H-imidazol-2-ylmethyl)sulfanyl]-4-methylpyridine-3,5-dicarbonitrile]	1	> 1	–	–	0.51 ± 0.053	267 to 269 °C (dec.)	–	0.074 ± 0.008	–	0.331 ± 0.032
N#Cc1c(N)nc(NCc2ncc[nH]2)c(C#N)c1-c1ccccc1 [Compound 14, 2-Amino-6-[(1H-imidazol-2-ylmethyl)amino]-4-phenylpyridine-3,5-dicarbonitrile]	1	> 1	–	–	–	208 to 210 °C	19	0.14 ± 0.012	–	0.115 ± 0.01
N#Cc1c(N)nc(NCCO)c(C#N)c1-c1ccccc1 [Compound 15, 2-Amino-6-[(2-hydroxyethyl)amino]-4-phenylpyridine-3,5-dicarbonitrile]	1	> 1	–	1	–	230 to 231 °C	1	0.943 ± 0.087	–	–
COc1ccc(CCNc2nc(N)c(C#N)c(-c3ccccc3)c2C#N)cc1 [Compound 16, 2-Amino-6-{[2-(4-methoxyphenyl)ethyl]amino}-4-phenylpyridine-3,5-dicarbonitrile]	1	> 1	1	1	–	–	1	–	–	–
N#Cc1c(N)nc(-n2ccnc2)c(C#N)c1-c1ccccc1 [Compound 17, 2-Amino-6-(1H-imidazol-1-yl)-4-phenylpyridine-3,5-dicarbonitrile]	1	> 1	27	1	–	253 to 255 °C	25	–	–	–
N#Cc1cnc(N)c(C#N)c1-c1ccccc1 [Compound 18, 2-amino-4-phenylpyridine-3,5-dicarbonitrile]	1	> 1	15	16	–	244 to 246 °C	5	–	–	–
